Results as given in ChEMBL document CHEMBL1201862, “PubChem BioAssay data set” (2004).
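Method: 48-hour compound exposure of cells in 96-well plates, five concentrations, linear interpolation of endpoints. Abbreviation: GI50, concentration required for 50% inhibition of growth.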 Active and inactive are the calls of the source. No stated cut-off is given here; in the data, active = GI50 up to about 1.1 µM and inactive = higher.

Experiments:
Test in all cases: NCI anticancer screen, dose series, 48 h
[1] = tested on: SK-OV-3
[2] = tested on: HT-29
[3] = tested on: UACC-62
[4] = tested on: LOX IMVI
[5] = tested on: 786-0
[6] = tested on: Malme-3M
[7] = tested on: EKVX
[8] = tested on: K562
[9] = tested on: SF-268
[10] = tested on: HCC 2998
[11] = tested on: UACC-257
[12] = tested on: HCT-116
[13] = tested on: OVCAR-5
[14] = tested on: SW-620
[15] = tested on: OVCAR-3
[16] = tested on: SK-MEL-2
[17] = tested on: NCI-H522
[18] = tested on: SNB-19
[19] = tested on: HL-60

Measured: GI50

CCOC(=O)c1nc2cc(C(F)(F)F)ccc2nc1Nc1ccc(F)cc1
inactive: [1] 94.4 µM | [2] 97.9 µM | [3] 25.5 µM | [4] > 100 µM | [5] > 100 µM | [6] > 100 µM | [7] 68.2 µM | [8] 13.3 µM | [9] > 100 µM | [10] 19.6 µM | [11] > 100 µM | [12] 96.8 µM | [13] > 100 µM | [14] 74.1 µM | [15] 44.8 µM | [16] > 100 µM

O=C(/C=C1\Nc2ccc([N+](=O)[O-])cc2N=C1NC12CC3CC(CC(C3)C1)C2)c1ccccc1
inactive: [1] 3.77 µM | [2] > 10 µM | [4] > 10 µM | [17] > 10 µM | [5] 4.21 µM | [6] > 10 µM | [7] > 10 µM | [9] > 10 µM | [10] > 10 µM | [11] > 10 µM | [13] > 10 µM | [14] > 10 µM | [15] > 10 µM | [16] > 10 µM

CCOC(=O)C(=O)Nc1ccccc1C
inactive: [1] > 100 µM | [18] > 100 µM | [3] > 100 µM | [4] > 100 µM | [17] > 100 µM | [5] > 100 µM | [6] > 100 µM | [7] > 100 µM | [8] > 100 µM | [9] > 100 µM | [19] 29.4 µM | [10] > 100 µM | [12] > 100 µM | [13] > 100 µM | [14] > 100 µM | [16] > 100 µM

NC(=O)c1cn(Cc2ccccc2)c(=O)n1Cc1ccccc1
inactive: [1] > 100 µM | [18] > 100 µM | [2] > 100 µM | [3] > 100 µM | [4] > 100 µM | [17] > 100 µM | [5] > 100 µM | [7] > 100 µM | [8] > 100 µM | [9] > 100 µM | [19] > 100 µM | [10] > 100 µM | [11] > 100 µM | [12] > 100 µM | [13] > 100 µM | [14] > 100 µM | [15] > 100 µM | [16] > 100 µM

CC1CC/C(=C\c2ccc(F)cc2)C2=C1C(c1ccc(F)cc1)NC(=S)N2 (stereo unspecified)
inactive: [1] > 100 µM | [18] > 100 µM | [2] 29 µM | [3] > 100 µM | [4] 48.2 µM | [5] 63.4 µM | [6] 36.7 µM | [7] 12.9 µM | [8] 35.5 µM | [9] 91.4 µM | [19] 38.5 µM | [11] 43.2 µM | [12] 32.9 µM | [14] 80.4 µM | [15] 33.8 µM | [16] 28.2 µM

O=C1Cc2ccccc2N1/N=C\c1ccc([N+](=O)[O-])cc1
inactive: [1] > 100 µM | [18] > 100 µM | [2] > 100 µM | [3] > 100 µM | [4] > 100 µM | [5] > 100 µM | [6] > 100 µM | [7] > 100 µM | [8] > 100 µM | [9] > 100 µM | [19] > 100 µM | [10] > 100 µM | [11] > 100 µM | [12] > 100 µM | [13] > 100 µM | [14] > 100 µM | [15] > 100 µM | [16] > 100 µM

CC(C)c1ccc(Cc2ccc(C(C)C)c(NC(=O)C(=O)Cc3cnc4ccccc4n3)c2C(C)C)c(C(C)C)c1NC(=O)C(=O)Cc1cnc2ccccc2n1
inactive: [1] > 100 µM | [18] > 100 µM | [3] > 100 µM | [4] > 100 µM | [5] > 100 µM | [6] > 100 µM | [7] > 100 µM | [8] > 100 µM | [19] > 100 µM | [10] > 100 µM | [11] > 100 µM | [12] > 100 µM | [13] > 100 µM | [14] > 100 µM | [15] > 100 µM | [16] > 100 µM

CCOC(C)OCC#CCCBr (stereo unspecified)
inactive: [1] > 100 µM | [18] > 100 µM | [2] > 100 µM | [3] > 100 µM | [4] > 100 µM | [5] > 100 µM | [6] > 100 µM | [7] > 100 µM | [8] 59.7 µM | [9] > 100 µM | [19] 80.5 µM | [10] > 100 µM | [11] > 100 µM | [12] > 100 µM | [13] > 100 µM | [14] > 100 µM | [15] > 100 µM | [16] > 100 µM

CC(C)c1cccc(C(C)C)c1NC(=O)CCC(=O)NN
inactive: [1] > 100 µM | [18] > 100 µM | [2] > 100 µM | [3] > 100 µM | [5] > 100 µM | [6] > 100 µM | [7] > 100 µM | [8] 58.6 µM | [9] > 100 µM | [19] > 100 µM | [10] > 100 µM | [11] > 100 µM | [12] 66.4 µM | [13] > 100 µM | [14] 21.9 µM | [15] > 100 µM

C#CCOC(=O)C(N)CS (stereo unspecified)
inactive: [1] > 100 µM | [2] > 100 µM | [3] > 100 µM | [4] > 100 µM | [17] > 100 µM | [5] > 100 µM | [6] > 100 µM | [7] > 100 µM | [8] > 100 µM | [9] > 100 µM | [19] > 100 µM | [11] > 100 µM | [12] > 100 µM | [13] > 100 µM | [14] > 100 µM | [15] > 100 µM | [16] > 100 µM

COC(=O)NC12CC3CC(CC(F)(C3)C1)C2
inactive: [1] > 100 µM | [18] > 100 µM | [2] > 100 µM | [3] > 100 µM | [4] > 100 µM | [17] > 100 µM | [5] > 100 µM | [6] > 100 µM | [7] > 100 µM | [8] > 100 µM | [19] > 100 µM | [10] > 100 µM | [11] > 100 µM | [12] > 100 µM | [13] > 100 µM | [14] > 100 µM | [15] > 100 µM | [16] > 100 µM

COc1cc2ccc(C(=O)O)cc2cc1OC
inactive: [1] > 100 µM | [18] > 100 µM | [2] > 100 µM | [3] > 100 µM | [4] > 100 µM | [17] > 100 µM | [5] > 100 µM | [6] > 100 µM | [7] > 100 µM | [8] > 100 µM | [9] > 100 µM | [11] > 100 µM | [12] > 100 µM | [13] > 100 µM | [14] > 100 µM | [15] > 100 µM | [16] > 100 µM

CN(C)CCCCN1CCc2c(n(C)c3ccccc23)C1=O
inactive: [1] > 70 µM | [18] > 76.9 µM | [2] 24.3 µM | [3] 26 µM | [4] 25.9 µM | [17] 55.3 µM | [5] 61.1 µM | [6] 21.7 µM | [7] 51.5 µM | [8] 23.4 µM | [9] 48.1 µM | [11] 17.2 µM | [12] 40.3 µM | [14] 44.4 µM | [15] > 78.9 µM | [16] 25.9 µM

O=C(CC/C(CC(=O)c1ccc(Cl)cc1)=N\O)Nc1cccc(Cl)c1
inactive: [1] > 100 µM | [18] > 100 µM | [2] > 100 µM | [3] > 100 µM | [4] > 100 µM | [5] > 100 µM | [6] > 100 µM | [7] > 100 µM | [8] > 100 µM | [9] > 100 µM | [10] > 100 µM | [11] > 100 µM | [13] > 100 µM | [14] > 100 µM | [15] > 100 µM | [16] > 100 µM

CCC(CCCCC1CC[C@H]2CC(=O)C[C@@H]12)OC (stereo partly specified)
inactive: [1] > 100 µM | [18] > 100 µM | [2] > 100 µM | [4] > 100 µM | [17] > 100 µM | [5] > 100 µM | [8] 26.5 µM | [9] > 100 µM | [19] 36.7 µM | [10] > 100 µM | [11] 72.3 µM | [12] > 100 µM | [13] > 100 µM | [14] > 100 µM | [15] > 100 µM | [16] > 100 µM

N#CC(C(=O)CCC(=O)Nc1cccc(C(F)(F)F)c1)c1ccc(Cl)cc1 (stereo unspecified)
inactive: [1] > 100 µM | [18] > 100 µM | [2] > 100 µM | [3] > 100 µM | [4] > 100 µM | [17] > 100 µM | [5] > 100 µM | [6] > 100 µM | [7] > 100 µM | [8] > 100 µM | [9] > 100 µM | [19] > 100 µM | [10] > 100 µM | [11] > 100 µM | [12] > 100 µM | [13] > 100 µM | [14] > 100 µM | [15] > 100 µM
